Measurements reported in the supplement of paper PMC10307832.

Assays:
Test in all cases: relative viability (nuclei count vs DMSO), 5 days (fraction); higher = more cells survive
Irinotecan + Crizotinib = compound: CCc1c2c(nc3ccc(OC(=O)N4CCC(N5CCCCC5)CC4)cc13)-c1cc3c(c(=O)n1C2)COC(=O)[C@]3(O)CC [Irinotecan] + C[C@@H](Oc1cc(-c2cnn(C3CCNCC3)c2)cnc1N)c1c(Cl)ccc(F)c1Cl [Crizotinib] (partner 1 µM)
In short: (§1)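 Five library-drug doses in √10 steps were combined with a fixed anchor-drug dose, or a single drug was given alone, by pin tool to lung cancer cell lines in 1536-well plates the day after seeding. Nuclei were stained and counted after 5 days. Relative viability is the nuclei count in treated wells over that in vehicle wells, taken as the median of duplicate plates.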

Irinotecan + Decitabine = compound: CCc1c2c(nc3ccc(OC(=O)N4CCC(N5CCCCC5)CC4)cc13)-c1cc3c(c(=O)n1C2)COC(=O)[C@]3(O)CC [Irinotecan] + Nc1ncn([C@H]2C[C@H](O)[C@@H](CO)O2)c(=O)n1 [Decitabine] (partner 2 µM)
In short: as §1

Irinotecan + Vorinostat = compound: CCc1c2c(nc3ccc(OC(=O)N4CCC(N5CCCCC5)CC4)cc13)-c1cc3c(c(=O)n1C2)COC(=O)[C@]3(O)CC [Irinotecan] + O=C(CCCCCCC(=O)Nc1ccccc1)NO [Vorinostat] (partner 1 µM)
In short: as §1

MK-8033 + Vorinostat = compound: Cn1cc(-c2cnc3ccc4ccc(CS(=O)(=O)NCc5ccccn5)cc4c(=O)c3c2)cn1 [MK-8033] + O=C(CCCCCCC(=O)Nc1ccccc1)NO [Vorinostat] (partner 1 µM)
In short: as §1

Cell Line | relative viability (Irinotecan + Crizotinib; first compound 0.6325 µM) | relative viability (Irinotecan + Crizotinib; first compound 2 µM) | relative viability (Irinotecan + Crizotinib; first compound 6.325 µM) | relative viability (Irinotecan + Crizotinib; first compound 20 µM) | relative viability (Irinotecan + Decitabine; first compound 0.6325 µM) | relative viability (Irinotecan + Decitabine; first compound 2 µM) | relative viability (Irinotecan + Decitabine; first compound 6.325 µM) | relative viability (Irinotecan + Decitabine; first compound 20 µM) | relative viability (Irinotecan + Vorinostat; first compound 0.6325 µM) | relative viability (Irinotecan + Vorinostat; first compound 2 µM) | relative viability (Irinotecan + Vorinostat; first compound 6.325 µM) | relative viability (Irinotecan + Vorinostat; first compound 20 µM) | relative viability (MK-8033 + Vorinostat; first compound 0.02 µM) | relative viability (MK-8033 + Vorinostat; first compound 0.06325 µM) | relative viability (MK-8033 + Vorinostat; first compound 0.2 µM) | relative viability (MK-8033 + Vorinostat; first compound 0.6325 µM) | relative viability (MK-8033 + Vorinostat; first compound 2 µM)
NCI-H2009 | 0.912 | 0.857 | 0.233 | 0.224 | 0.358 | 0.32 | 0.266 | 0.135 | 0.589 | 0.379 | 0.236 | 0.135 | 0.678 | 0.689 | 0.776 | 0.733 | 0.676
HCC-366 | 0.274 | 0.132 | 0.0524 | 0.0502 | 0.341 | 0.212 | 0.104 | 0.0739 | 0.145 | 0.137 | 0.0609 | 0.069 | 0.392 | 0.313 | 0.253 | 0.329 | 0.324
HARA | 0.705 | 0.204 | 0.208 | 0.161 | 0.481 | 0.318 | 0.284 | 0.283 |  | 0.146 | 0.122 | 0.135 | 0.549 |  | 0.553 | 0.521 | 0.542
HCC-827 | 0.487 | 0.287 | 0.282 | 0.191 | 0.337 | 0.326 | 0.174 | 0.221 | 0.721 | 0.766 | 0.281 | 0.236 | 1.1 |  | 0.8 | 0.907 | 0.959
LXF-289 | 0.726 | 0.549 | 0.247 | 0.208 | 0.351 | 0.218 | 0.162 | 0.165 | 0.724 | 0.688 | 0.41 | 0.195 | 0.843 | 0.615 | 0.737 | 0.755 | 0.812
NCI-H460 | 0.709 | 0.239 | 0.0835 | 0.0573 | 0.353 | 0.317 | 0.106 | 0.0426 | 0.193 | 0.218 | 0.0779 | 0.0695 | 0.79 | 0.473 | 0.656 | 0.742 | 0.726
NCI-H2023 | 0.676 | 0.532 | 0.205 | 0.0482 | 0.264 | 0.209 | 0.141 | 0.0603 | 0.365 | 0.451 | 0.204 | 0.0592 | 0.857 | 0.44 | 0.583 | 0.515 | 0.491
PC-14 | 0.873 | 0.695 | 0.2 | 0.194 | 0.184 | 0.182 | 0.12 | 0.111 | 0.477 | 0.392 | 0.217 | 0.102 | 0.708 | 0.52 | 0.683 | 0.797 | 0.599
NCI-H1734 | 0.618 | 0.336 | 0.226 | 0.177 |  | 0.27 | 0.18 | 0.197 |  | 0.522 | 0.195 | 0.175 | 0.874 | 0.639 | 0.698 | 0.836 | 0.758
NCI-H727 | 0.366 | 0.556 | 0.497 | 0.447 | 0.617 | 0.751 | 0.527 | 0.602 | 1.03 | 0.731 | 0.616 | 0.641 | 1.2 | 0.981 | 1.11 | 1.16 | 1.13
HOP-62 | 0.211 | 0.108 | 0.136 | 0.159 | 0.22 | 0.198 | 0.187 | 0.212 | 0.234 | 0.311 | 0.167 | 0.188 | 0.549 | 0.617 | 0.61 | 0.717 | 0.588
NCI-H2405 | 0.788 | 0.779 | 0.355 | 0.274 |  | 0.667 | 0.411 | 0.255 |  | 0.956 | 0.307 | 0.195 | 1.1 | 0.988 | 0.9 | 1.06 | 1.04
A-427 |  | 0.243 | 0.179 | 0.214 | 0.566 | 0.573 | 0.347 | 0.198 | 0.738 | 0.785 | 0.384 | 0.33 | 0.886 | 0.826 | 0.819 | 0.908 | 0.881
LCLC-97TM1 | 0.107 | 0.208 | 0.185 | 0.239 | 0.135 | 0.107 | 0.105 | 0.115 | 0.104 | 0.248 | 0.114 | 0.129 | 0.662 | 0.48 |  | 0.825 | 0.761
NCI-H3122 | 0.25 | 0.205 | 0.173 | 0.163 | 0.232 | 0.163 | 0.117 | 0.127 | 0.924 | 0.447 | 0.199 | 0.146 | 0.834 | 1.3 | 0.879 | 1.14 | 1.01
RERF-LC-KJ | 0.785 | 0.533 | 0.322 | 0.342 | 0.539 | 0.792 | 0.482 | 0.154 | 0.462 | 0.586 | 0.48 | 0.271 | 0.726 | 0.599 | 0.664 | 0.707 | 0.597
NCI-H2170 | 1.1 | 0.588 | 0.309 | 0.186 | 0.396 | 0.222 | 0.128 | 0.122 | 0.864 | 0.753 | 0.327 | 0.102 | 0.802 | 0.882 | 0.691 | 0.768 | 0.79
